From US20240317731A1, “AMINOTHIAZOLE COMPOUNDS AS C-KIT INHIBITORS” (Theseus Pharmaceuticals, Inc., priority 2021, published 2024)

How the values were obtained:
BAF3 KIT EX11 DEL/V654A = BAF3 KIT EX11 DEL/V654A (Homo sapiens, UniProt P10721, V654A, cells depend on it, form not given); test: Ba/F3 KIT mutant viability assay (Cell Titer-Glo), EX11 DEL/V654A; assay type: cell-based; details: 72 hours
Protocol: (§1) KIT cDNAs were synthesized by GenScript and cloned into the pLVX-IRES-Puro vector (Clontech). Viral particles were produced by transfecting pLVX-IRES-puro vectors containing KIT mutant genes into HEK293 cells (Invitrogen) using the Trans-Lentiviral ORF Packaging Kit (Thermo Scientific). 48 hours post-transfection, virus-containing supernatants were harvested and incubated for another 48-72 hours with parental Ba/F3 cells (DSMZ) in the presence of 10 ng/ml IL-3 (R&D Systems). Transduced Ba/F3 cells were then selected by IL-3 withdrawal and puromycin (0.5-1 μg/mL, Invitrogen).
(§2) Cell lines (e.g., EX11DEL, EX11KEL/D816H, EX11DEL/T670I, and EX11DEL/V654A) were plated into 384 well plates using RPMI 1640 supplemented with 10% FBS at densities that produced linear growth and incubated at 37° C. in 5%(v/v) CO2. Cells were treated with eight concentrations of compound over a 4-fold dilution (10 uM to 0.61 nM) and viability was assessed using Cell Titer-Glo assay (Promega) after 72 hours. Data were plotted as percent viability relative to vehicle-treated cells. Dose-responses curves were generated and used to calculate IC50 values.

BAF3 KIT EX11 DEL/T670I = BAF3 KIT EX11 DEL/T670I (Homo sapiens, UniProt P10721, T670I, cells depend on it, form not given); test: Ba/F3 KIT mutant viability assay (Cell Titer-Glo), EX11 DEL/T670I; assay type: cell-based; details: 72 hours
Protocol: as §1, §2

BAF3 KIT EX11 DEL = BAF3 KIT EX11 DEL (Homo sapiens, UniProt P10721, cells depend on it, form not given); test: Ba/F3 KIT mutant viability assay (Cell Titer-Glo), EX11 DEL; assay type: cell-based; details: 72 hours
Protocol: as §1, §2

[1] = In vivo pharmacokinetic studies in non-human primates (monkeys); design: species or system monkey; details: male and female monkeys, oral
Protocol: Pharmacokinetic studies of Compound (1a) in non-human primates were also undertaken in male (FIG. 2A) and female (FIG. 2B) monkeys at two different doses (2 mg/kg and 4 mg/kg) via oral administration.

BAF3 KIT EX11 DEL/D816H = BAF3 KIT EX11 DEL/D816H (Homo sapiens, UniProt P10721, D816H, cells depend on it, form not given); test: Ba/F3 KIT mutant viability assay (Cell Titer-Glo), EX11 DEL/D816H; assay type: cell-based; details: 72 hours
Protocol: as §1, §2

[2] = In vivo pharmacokinetic studies in rats; details: rat
Excerpt: For example, the pharmacokinetics of Compound (1a) has been studied. […] After repeat dosing for 10 days, increased AUC (area under the curve) were obtained with Compound (1a) at either dose (see FIG. 1).

Chain of BAF3 KIT EX11 DEL/D816H (P10721 with tags, fused parts or gaps DEL557-558/D816H, form open): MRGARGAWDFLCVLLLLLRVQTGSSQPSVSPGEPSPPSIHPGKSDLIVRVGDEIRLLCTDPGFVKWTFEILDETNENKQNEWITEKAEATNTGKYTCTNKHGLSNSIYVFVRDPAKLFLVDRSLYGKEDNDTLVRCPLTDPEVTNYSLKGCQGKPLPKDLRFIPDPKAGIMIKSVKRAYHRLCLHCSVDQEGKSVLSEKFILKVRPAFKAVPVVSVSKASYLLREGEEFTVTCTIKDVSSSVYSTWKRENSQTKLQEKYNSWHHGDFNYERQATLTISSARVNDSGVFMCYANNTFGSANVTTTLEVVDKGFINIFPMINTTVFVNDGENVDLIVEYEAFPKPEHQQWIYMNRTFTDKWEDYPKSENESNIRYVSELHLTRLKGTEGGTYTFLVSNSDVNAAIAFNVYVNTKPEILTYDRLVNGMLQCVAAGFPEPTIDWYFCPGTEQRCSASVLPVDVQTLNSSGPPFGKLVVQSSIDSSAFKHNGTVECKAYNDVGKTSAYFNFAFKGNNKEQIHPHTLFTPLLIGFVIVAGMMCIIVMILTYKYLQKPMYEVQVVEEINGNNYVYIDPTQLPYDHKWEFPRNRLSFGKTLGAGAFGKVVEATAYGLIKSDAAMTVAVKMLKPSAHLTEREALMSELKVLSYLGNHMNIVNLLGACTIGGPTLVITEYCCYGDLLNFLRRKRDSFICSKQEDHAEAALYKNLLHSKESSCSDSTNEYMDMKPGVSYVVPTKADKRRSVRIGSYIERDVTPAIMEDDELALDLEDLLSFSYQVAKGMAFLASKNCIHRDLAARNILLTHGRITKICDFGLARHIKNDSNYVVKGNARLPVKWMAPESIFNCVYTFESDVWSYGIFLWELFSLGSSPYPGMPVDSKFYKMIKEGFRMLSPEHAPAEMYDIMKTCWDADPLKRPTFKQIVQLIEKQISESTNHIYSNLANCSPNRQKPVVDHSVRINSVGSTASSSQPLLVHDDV
Chain of BAF3 KIT EX11 DEL/V654A (P10721 with tags, fused parts or gaps DEL557-558/V654A, form open): as the sequence (P10721 with tags, fused parts or gaps DEL557-558/D816H, form open) above, with V652A, H814D counted along it
Chain of BAF3 KIT EX11 DEL/T670I (P10721 with tags, fused parts or gaps DEL557-558/T670I, form open): as the sequence (P10721 with tags, fused parts or gaps DEL557-558/D816H, form open) above, with T668I, H814D counted along it
Chain of BAF3 KIT EX11 DEL (P10721 with tags, fused parts or gaps DEL557-558): as the sequence (P10721 with tags, fused parts or gaps DEL557-558/D816H, form open) above, with H814D counted along it

Row | Compound | GI50 (BAF3 KIT EX11 DEL/V654A) [nM] | GI50 (BAF3 KIT EX11 DEL/T670I) [nM] | GI50 (BAF3 KIT EX11 DEL) [nM] | curve shapes and AUC, Day 1 versus Day 10 ([1]; 2 mg/kg and 4 mg/kg (either dose), FIG. 2A/2B) | exposure after repeat dosing ([1]; 2 mg/kg and 4 mg/kg, Day 10 versus Day 1) | GI50 (BAF3 KIT EX11 DEL/D816H) [nM] | AUC (area under the curve) after repeat dosing ([2]; oral, 10 mg/kg and 30 mg/kg (either dose), repeat dosing for 10 days, FIG. 1) | average observed plasma concentration (Cav) versus target exposure ([2]; oral, 30 mg/kg (the latter dose)) | clearance (Cl) ([2]; single dose) | volume of distribution (Vd) ([2]; single dose)
1 | Cc1ccc(NC(=O)c2cc(C(F)(F)F)ccn2)cc1C#Cc1cnc(NC(=O)N2CC[C@H](N(C)C)C2)s1 [Compound 1a, N-[3-[2-[2-[[(3S)-3-(dimethylamino)pyrrolidine-1-carbonyl]amino]thiazol-5-yl]ethynyl]-4-methyl-phenyl]-4-(trifluoromethyl)pyridine-2-carboxamide] | 10 to 50 | 10 to 50 | < 10 | similar | no significant loss of exposure | 10 to 50 | increased | exceeded target exposure required for achieving desired antitumor efficacy | high | high
2 | Cc1ccc(NC(=O)c2cc(C(F)(F)F)ccn2)cc1C#Cc1cnc(NC(=O)N2CC[C@@H](N(C)C)C2)s1 [Compound 1b] | 10 to 50 | 10 to 50 | < 10 |  |  | 10 to 50 |  |  |  | 
3 | Cc1ccc(NC(=O)c2cc(C(F)(F)F)ccn2)cc1C#Cc1cnc(NC(=O)N2CC[C@@H](O)C2)s1 [Compound 2a] | < 10 | < 10 | < 10 |  |  | < 10 |  |  |  | 
4 | Cc1ccc(NC(=O)c2cc(C(F)(F)F)ccn2)cc1C#Cc1cnc(NC(=O)N2CC[C@H](O)C2)s1 [Compound 2b] | < 10 | < 10 | < 10 |  |  | < 10 |  |  |  | 
5 | Cc1ccc(NC(=O)c2cc(C(F)(F)F)ccn2)cc1C#Cc1cnc(NC(=O)N2CC(O)C2)s1 [Compound 3] | 10 to 50 | 10 to 50 | < 10 |  |  | 10 to 50 |  |  |  | 
6 | Cc1ccc(NC(=O)c2cc(C(F)(F)F)ccn2)cc1C#Cc1cnc(NC(=O)N2CC(C)(O)C2)s1 [Compound 4] | 10 to 50 | 10 to 50 | < 10 |  |  | 10 to 50 |  |  |  | 
7 | CN[C@H]1CCN(C(=O)Nc2ncc(C#Cc3cc(NC(=O)c4cc(C(F)(F)F)ccn4)ccc3C)s2)C1 [Compound 5a] | 10 to 50 | 50 to 100 | < 10 |  |  | 10 to 50 |  |  |  | 
